Results published in ChEMBL document CHEMBL1201862, “PubChem BioAssay data set” (2004).
Values joined by “and” are separate entries in the source; they are usually repeats but may differ in a detail not shown here. Equal values may be shown once.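 A five-concentration, 48-hour dose response in 96-well plates underlies each endpoint, interpolated linearly between surrounding concentrations. Abbreviation: GI50, concentration required for 50% inhibition of growth.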 Active and inactive are the calls of the source. Rule as the data show it: active = GI50 up to about 1.1 µM and inactive = higher.

Tests used:
Test in all cases: NCI anticancer screen, dose series, 48 h
786-0 = test system: 786-0
ACHN = test system: ACHN
CCRF-CEM = test system: CCRF-CEM
COLO 205 = test system: COLO 205
HL-60 = test system: HL-60
HOP-62 = test system: HOP-62
IGROV-1 = test system: IGROV-1
LOX IMVI = test system: LOX IMVI
MDA-MB-231 = test system: MDA-MB-231
NCI-H23 = test system: NCI-H23
NCI-H522 = test system: NCI-H522
PC-3 = test system: PC-3
RXF 393 = test system: RXF 393
SF-295 = test system: SF-295
SK-MEL-28 = test system: SK-MEL-28
SK-MEL-2 = test system: SK-MEL-2
TK-10 = test system: TK-10
UACC-62 = test system: UACC-62
SNB-75 = test system: SNB-75
T47D = test system: T47D

Compound	GI50 (786-0)	GI50 (ACHN)	GI50 (CCRF-CEM)	GI50 (COLO 205)	GI50 (HL-60)	GI50 (HOP-62)	GI50 (IGROV-1)	GI50 (LOX IMVI)	GI50 (MDA-MB-231)	GI50 (NCI-H23)	GI50 (NCI-H522)	GI50 (PC-3)	GI50 (RXF 393)	GI50 (SF-295)	GI50 (SK-MEL-28)	GI50 (SK-MEL-2)	GI50 (TK-10)	GI50 (UACC-62)	GI50 (SNB-75)	GI50 (T47D)
CCOC(=O)Nc1sc2c(c1C#N)CCCC2	> 100 µM (inactive)	> 100 µM (inactive)	64.9 µM (inactive)	> 100 µM (inactive)	45.3 µM (inactive)	> 100 µM (inactive)	> 100 µM (inactive)	63.8 µM (inactive)	71.3 µM (inactive)	> 100 µM (inactive)	64 µM (inactive)	66.4 µM (inactive)	> 100 µM (inactive)	> 100 µM (inactive)	> 100 µM (inactive)	> 100 µM (inactive)	> 100 µM (inactive)	67.1 µM (inactive)		
O=C(O)C12C3CCC(O3)C1(C(=O)O)C1CCC2O1 (stereo not given)	> 100 µM (inactive)	> 100 µM (inactive)	> 100 µM (inactive)	> 100 µM (inactive)	> 100 µM (inactive)	> 100 µM (inactive)	> 100 µM (inactive)	> 100 µM (inactive)		> 100 µM (inactive)	> 100 µM (inactive)	> 100 µM (inactive)	> 100 µM (inactive) and 53.6 µM (inactive)	> 100 µM (inactive)	> 100 µM (inactive)	> 100 µM (inactive)	> 100 µM (inactive)	> 100 µM (inactive)	> 100 µM (inactive)	> 100 µM (inactive)
CC(C)(C)C1=Nc2c(Br)cc(C(C)(C)C)cc2C(C(F)(F)F)(C(F)(F)F)O1	35.3 µM (inactive)	45 µM (inactive)	32.7 µM (inactive)	> 100 µM (inactive)	22.2 µM (inactive)	> 100 µM (inactive)	65.5 µM (inactive)	16.2 µM (inactive)		> 100 µM (inactive)	31.1 µM (inactive)		22.5 µM (inactive)	54.8 µM (inactive)	32.7 µM (inactive)	> 100 µM (inactive)	> 100 µM (inactive)	> 100 µM (inactive)	> 100 µM (inactive)	
CCCCNC(=O)C1=C(C)NC(C)=C(C(=O)NCCCC)C1	> 100 µM (inactive)	> 100 µM (inactive)		> 100 µM (inactive)	71.1 µM (inactive)	> 100 µM (inactive)	61.1 µM (inactive)	> 100 µM (inactive)	> 100 µM (inactive)	> 100 µM (inactive)			> 100 µM (inactive)	> 100 µM (inactive)	> 100 µM (inactive)	> 100 µM (inactive)	> 100 µM (inactive)	> 100 µM (inactive)	49.8 µM (inactive)	> 100 µM (inactive)
COc1ccc2c(c1)CC1(O)COc3cc(OC)ccc3C1O2 (stereo not given)	> 100 µM (inactive)	> 100 µM (inactive)	> 100 µM (inactive)	> 100 µM (inactive)		> 100 µM (inactive)	> 100 µM (inactive)	> 100 µM (inactive)	> 100 µM (inactive)	> 100 µM (inactive)	> 100 µM (inactive)	> 100 µM (inactive)		> 100 µM (inactive)		> 100 µM (inactive)	> 100 µM (inactive)	> 100 µM (inactive)		85.7 µM (inactive)
Cn1cc(C(=O)c2ccccc2)c2ccccc2c1=O	> 100 µM (inactive)	> 100 µM (inactive)	> 100 µM (inactive)	> 100 µM (inactive)	24.8 µM (inactive)	18.8 µM (inactive)	> 100 µM (inactive)	> 100 µM (inactive)			34.4 µM (inactive)		> 100 µM (inactive)	93.5 µM (inactive)	> 100 µM (inactive)	> 100 µM (inactive)	73.1 µM (inactive)	49.2 µM (inactive)	23.4 µM (inactive)	
C=CCC1C(O[Si](C)(C)C(C)(C)C)C(CO[Si](C)(C)C(C)(C)C)OC1n1ccc(=O)[nH]c1=O (stereo not given)	1.15 µM (inactive)	1.6 µM (inactive)	0.548 µM (active)	1.63 µM (inactive)		1.98 µM (inactive)	1.41 µM (inactive)	0.705 µM (active)	1.79 µM (inactive)	1.29 µM (inactive)		1.53 µM (inactive)	1.8 µM (inactive)	1.78 µM (inactive)	1.58 µM (inactive)	2.14 µM (inactive)		1.73 µM (inactive)	1.24 µM (inactive)	1.3 µM (inactive)
O=C1CN(c2ccccc2)C(=O)CN1CCN1CC(=O)N(c2ccccc2)CC1=O	> 100 µM (inactive)	> 100 µM (inactive)		> 100 µM (inactive)	> 100 µM (inactive)	> 100 µM (inactive)	> 100 µM (inactive)			> 100 µM (inactive)	> 100 µM (inactive)	> 100 µM (inactive)	> 100 µM (inactive)	> 100 µM (inactive)	> 100 µM (inactive)		> 100 µM (inactive)	> 100 µM (inactive)	> 100 µM (inactive)	
